According to patent US8580709B2, “Plant growth regulation” (Syngenta Crop Protection, LLC, priority 2009, dated 2013):

What was measured:
Type in all cases: in vivo
[1] = tested on: Spring-barley Pasadena; assay: Plant growth regulation on cereals, greenhouse spray, visual shoot growth reduction; conditions: 13 days after application, growth stage 30-32, vs untreated control
Method: (§1) Plants were grown under greenhouse conditions and sprayed at growth stage 30-32 (start of stem elongation) of cereal plants with a boom sprayer. Trinexapac-ethyl (treatment A) was applied as Moddus® ME250 formulation, and Prohexadione-Ca (treatment B) was applied as Viviful® WG10 formulation with a standard flat fan nozzle at 200 l/ha spray volume. 13 days after application the plant growth reduction (% GR) of the shoot (leaves and stem) was evaluated visually compared to the untreated control. The expected plant growth reduction was calculated according to Colby (Colby 1967, Weeds 15, 20-22) and compared to evaluation data of sprayed plants.

[2] = tested on: Spring-wheat Lona; assay: as above; conditions: 13 days after application, growth stage 30-32, vs untreated control
Method: as §1

[3] = tested on: Winter-barley Hasso; assay: as above; conditions: 13 days after application, growth stage 30-32, vs untreated control
Method: as §1

[4] = tested on: Winter-wheat Arina; assay: as above; conditions: 13 days after application, growth stage 30-32, vs untreated control
Method: as §1

[5] = tested on: Corn Maeva; assay: Plant growth regulation on corn, greenhouse spray, visual shoot growth reduction; conditions: 33 days after application, growth stage 13, vs untreated control
Method: as §1, with “Corn plants of 4 different varieties” for “Plants”, “13 (3 leaves unfolded)” for “30-32 (start of stem elongation) of cereal plants”, “Trinexapac-ethyl” for “Trinexapac-ethyl (treatment A)”, “Prohexadion-Ca” for “Prohexadione-Ca (treatment B)”, “WG 10” for “WG10”, “33” for “13”

[6] = tested on: Corn Ronaldinio; assay: as above; conditions: 33 days after application, growth stage 13, vs untreated control
Method: as §1, with “Corn plants of 4 different varieties” for “Plants”, “13 (3 leaves unfolded)” for “30-32 (start of stem elongation) of cereal plants”, “Trinexapac-ethyl” for “Trinexapac-ethyl (treatment A)”, “Prohexadion-Ca” for “Prohexadione-Ca (treatment B)”, “WG 10” for “WG10”, “33” for “13”

[7] = tested on: Corn LG22.65; assay: as above; conditions: 33 days after application, growth stage 13, vs untreated control
Method: as §1, with “Corn plants of 4 different varieties” for “Plants”, “13 (3 leaves unfolded)” for “30-32 (start of stem elongation) of cereal plants”, “Trinexapac-ethyl” for “Trinexapac-ethyl (treatment A)”, “Prohexadion-Ca” for “Prohexadione-Ca (treatment B)”, “WG 10” for “WG10”, “33” for “13”

[8] = tested on: Corn ECO5133; assay: as above; conditions: 33 days after application, growth stage 13, vs untreated control
Method: as §1, with “Corn plants of 4 different varieties” for “Plants”, “13 (3 leaves unfolded)” for “30-32 (start of stem elongation) of cereal plants”, “Trinexapac-ethyl” for “Trinexapac-ethyl (treatment A)”, “Prohexadion-Ca” for “Prohexadione-Ca (treatment B)”, “WG 10” for “WG10”, “33” for “13”

| Compound | % GR (plant growth reduction of the shoot) ([1]; 25 g a.i./ha) [%] | % GR (plant growth reduction of the shoot) ([1]; 50 g a.i./ha) [%] | % GR (plant growth reduction of the shoot) ([2]; 25 g a.i./ha) [%] | % GR (plant growth reduction of the shoot) ([2]; 50 g a.i./ha) [%] | % GR (plant growth reduction of the shoot) ([3]; 25 g a.i./ha) [%] | % GR (plant growth reduction of the shoot) ([3]; 50 g a.i./ha) [%] | % GR (plant growth reduction of the shoot) ([4]; 25 g a.i./ha) [%] | % GR (plant growth reduction of the shoot) ([4]; 50 g a.i./ha) [%] | % GR (plant growth reduction of the shoot) ([5]; 25 g a.i./ha) [%] | % GR (plant growth reduction of the shoot) ([5]; 50 g a.i./ha) [%] | % GR (plant growth reduction of the shoot) ([5]; 100 g a.i./ha) [%] | % GR (plant growth reduction of the shoot) ([6]; 25 g a.i./ha) [%] | % GR (plant growth reduction of the shoot) ([6]; 50 g a.i./ha) [%] | % GR (plant growth reduction of the shoot) ([6]; 100 g a.i./ha) [%] | % GR (plant growth reduction of the shoot) ([7]; 25 g a.i./ha) [%] | % GR (plant growth reduction of the shoot) ([7]; 50 g a.i./ha) [%] | % GR (plant growth reduction of the shoot) ([7]; 100 g a.i./ha) [%] | % GR (plant growth reduction of the shoot) ([8]; 25 g a.i./ha) [%] | % GR (plant growth reduction of the shoot) ([8]; 50 g a.i./ha) [%] | % GR (plant growth reduction of the shoot) ([8]; 100 g a.i./ha) [%] |
| --- | --- | --- | --- | --- | --- | --- | --- | --- | --- | --- | --- | --- | --- | --- | --- | --- | --- | --- | --- | --- |
| CCC(=O)C1=C([O-])CC(C(=O)[O-])CC1=O.[Ca+2] (stereo not shown) [B, Prohexadione-Ca] | 0.0 | 1.7 | 0.0 | 3.3 | 0.0 | 5.0 | 0.0 | 3.3 | 1.7 | 5.0 | 18.3 | 0.0 | 0.0 | 1.7 | 0.0 | 1.7 | 13.3 | 0.0 | 0.0 | 0.0 |
| CCOC(=O)C1CC(=O)C(=C(O)C2CC2)C(=O)C1 (stereo not shown) [A, Trinexapac-ethyl] | 0.0 | 0.0 | 1.7 | 3.3 | 0.0 | 5.0 | 0.0 | 5.0 | 1.7 | 3.3 | 6.7 | 0.0 | 0.0 | 3.3 | 0.0 | 3.3 | 11.7 | 1.7 | 1.7 | 6.7 |
